From patent US10806142B2, “2-amino-5-ketoxime-pyrimidine derivatives and their use for controlling undesired plant growth” (Bayer CropScience Aktiengesellschaft, priority 2015, dated 2020)

Tests used:
[1] = logp (HCOOH), physicochemical characterization; conditions: HCOOH (formic acid)
Matricaria inodora [2] = test: Pre-emergence herbicidal effect; assay type: in vivo
Description: (§1) 1. Pre-Emergence Herbicidal Effect and Crop Plant Compatibility Seeds of monocotyledonous and dicotyledonous weed plants and crop plants are laid out in wood-fiber pots in sandy loam and covered with soil. The compounds of the invention, formulated in the form of wettable powders (WP) or as emulsion concentrates (EC), are then applied to the surface of the covering soil as aqueous suspension or emulsion at a water application rate equating to 600 to 800 L/ha with addition of 0.2% wetting agent. After the treatment, the pots are placed in a greenhouse and kept under good growth conditions for the trial plants. The damage to the trial plants is scored visually after a trial duration of 3 weeks by comparison with untreated controls (herbicidal activity in percent (%): 100% efficacy=the plants have died, 0% efficacy=like control plants). [table]

Echinochloa crus-galli = test: Pre-emergence herbicidal effect; assay type: in vivo
Description: as §1

Veronica persica = test: Pre-emergence herbicidal effect; assay type: in vivo
Description: as §1

Polygpnum convolvulus [3] = test: Pre-emergence herbicidal effect; assay type: in vivo
Description: as §1

Amaranthus retroflexus [4] = test: Pre-emergence herbicidal effect; assay type: in vivo
Description: as §1

Alopecurus myosuroides = test: Pre-emergence herbicidal effect; assay type: in vivo; conditions: dosage 320 g a.i./ha
Description: as §1

Cyperus esculentus = test: Pre-emergence herbicidal effect; assay type: in vivo; conditions: dosage 320 g a.i./ha
Description: as §1

Stellaria media [5] = test: Pre-emergence herbicidal effect; assay type: in vivo
Description: as §1

Avena fatua = test: Pre-emergence herbicidal effect; assay type: in vivo; conditions: dosage 320 g a.i./ha
Description: as §1

Setaria viridis [6] = test: Pre-emergence herbicidal effect; assay type: in vivo
Description: as §1

Viola tricolor [7] = test: Pre-emergence herbicidal effect; assay type: in vivo
Description: as §1

Polygpnum convolvulus [8] = test: Post-emergence herbicidal effect; assay type: in vivo
Protocol: (§2) [table] 2. Post-Emergence Herbicidal Effect and Crop Plant Compatibility Seeds of monocotyledonous and dicotyledonous weed and crop plants are laid out in sandy loam in wood-fiber pots, covered with soil and cultivated in a greenhouse under good growth conditions. 2 to 3 weeks after sowing, the test plants are treated at the one-leaf stage. The compounds of the invention, formulated in the form of wettable powders (WP) or as emulsion concentrates (EC), are then sprayed onto the green parts of the plants as aqueous suspension or emulsion at a water application rate equating to 600 to 800 L/ha with addition of 0.2% wetting agent. After the trial plants have been left to stand in a greenhouse under optimal growth conditions for about 3 weeks, the efficacy of the formulations is scored visually in comparison to untreated controls (herbicidal action in percent (%): 100% efficacy=the plants have died, 0% efficacy=like control plants).

Amaranthus retroflexus [9] = test: Post-emergence herbicidal effect; assay type: in vivo; conditions: visual score after about 3 weeks
Protocol: as §2

Ipomoea purpurea = test: Post-emergence herbicidal effect; assay type: in vivo
Protocol: as §2

Stellaria media [10] = test: Post-emergence herbicidal effect; assay type: in vivo; conditions: visual score after about 3 weeks
Protocol: as §2

Setaria viridis [11] = test: Post-emergence herbicidal effect; assay type: in vivo
Protocol: as §2

Viola tricolor [12] = test: Post-emergence herbicidal effect; assay type: in vivo
Protocol: as §2

Abutilon theophrasti = test: Post-emergence herbicidal effect; assay type: in vivo; conditions: visual score after about 3 weeks
Protocol: as §2

Matricaria inodora [13] = test: Post-emergence herbicidal effect; assay type: in vivo; conditions: dosage 320 g a.i./ha, visual score after about 3 weeks
Protocol: as §2

[14] = dosage 80 g a.i./ha, visual score after about 3 weeks
[15] = dosage 320 g a.i./ha, visual score after about 3 weeks
[16] = dosage cell empty, first line of the compound
[17] = dosage cell empty, second line of the compound

CC/C(=N/O)c1cnc(N[C@H]2c3cc(C)ccc3C[C@@H]2C)nc1CC [Compound 1.40b, N-[(1R,2S)-2,6-dimethyl-2,3-dihydro-1H-inden-1-yl]-4-ethyl-5-[(1Z)-N-hydroxypropanimidoyl]pyrimidine-2-amine]
90%: Herbicidal activity against MATIN (Matricaria inodora [2]; dosage 80 g a.i./ha) | Herbicidal activity against ECHCG (Echinochloa crus-galli; dosage 80 g a.i./ha) | Herbicidal activity against STEME (Stellaria media [5]; dosage 80 g a.i./ha) | Herbicidal activity against AVEFA (Avena fatua) | Herbicidal activity against AMARE (Amaranthus retroflexus [9]; dosage 80 g a.i./ha) | Herbicidal activity against PHBPU (Ipomoea purpurea; [15]) | Herbicidal activity against SETVI (Setaria viridis [11]; [15]) | Herbicidal activity against VIOTR (Viola tricolor [12]; [14]) | Herbicidal activity against VIOTR (Viola tricolor [12]; [15])
70%: Herbicidal activity against STEME (Stellaria media [10]; dosage 80 g a.i./ha)
3.86: chromatographic logP [1]
80%: Herbicidal activity against ALOMY (Alopecurus myosuroides) | Herbicidal activity against POLCO (Polygpnum convolvulus [8]; [14]) | Herbicidal activity against POLCO (Polygpnum convolvulus [8]; [15]) | Herbicidal activity against PHBPU (Ipomoea purpurea; [14]) | Herbicidal activity against STEME (Stellaria media [10]; dosage 320 g a.i./ha)
100%: Herbicidal activity against MATIN (Matricaria inodora [2]; dosage 320 g a.i./ha) | Herbicidal activity against ECHCG (Echinochloa crus-galli; dosage 320 g a.i./ha) | Herbicidal activity against VERPE (Veronica persica; dosage 80 g a.i./ha) | Herbicidal activity against VERPE (Veronica persica; dosage 320 g a.i./ha) | Herbicidal activity against POLCO (Polygpnum convolvulus [3]; dosage 80 g a.i./ha) | Herbicidal activity against POLCO (Polygpnum convolvulus [3]; dosage 320 g a.i./ha) | Herbicidal activity against AMARE (Amaranthus retroflexus [4]; dosage 80 g a.i./ha) | Herbicidal activity against AMARE (Amaranthus retroflexus [4]; dosage 320 g a.i./ha) | Herbicidal activity against CYPES (Cyperus esculentus) | Herbicidal activity against STEME (Stellaria media [5]; dosage 320 g a.i./ha) | Herbicidal activity against SETVI (Setaria viridis [6]; dosage 80 g a.i./ha) | Herbicidal activity against SETVI (Setaria viridis [6]; dosage 320 g a.i./ha) | Herbicidal activity against VIOTR (Viola tricolor [7]; dosage 80 g a.i./ha) | Herbicidal activity against VIOTR (Viola tricolor [7]; dosage 320 g a.i./ha) | Herbicidal activity against AMARE (Amaranthus retroflexus [9]; dosage 320 g a.i./ha)

CCCC/C(=N\O)c1cnc(N[C@H]2c3cc(C)ccc3C[C@@H]2C)nc1 [Compound 1.85a, N-[(1R,2S)-2,6-Dimethyl-2,3-dihydro-1H-inden-1-yl]-5-[(1E)-N-hydroxypentanimidoyl]pyrimidine-2-amine]
90%: Herbicidal activity against STEME (Stellaria media [10]; dosage 320 g a.i./ha) | Herbicidal activity against VIOTR (Viola tricolor [12]; [15])
3.86: chromatographic logP [1]
80%: Herbicidal activity against AMARE (Amaranthus retroflexus [4]; dosage 320 g a.i./ha) | Herbicidal activity against POLCO (Polygpnum convolvulus [8]; [14]) | Herbicidal activity against POLCO (Polygpnum convolvulus [8]; [15]) | Herbicidal activity against ABUTH (Abutilon theophrasti; dosage 80 g a.i./ha) | Herbicidal activity against STEME (Stellaria media [10]; dosage 80 g a.i./ha) | Herbicidal activity against VIOTR (Viola tricolor [12]; [14])
100%: Herbicidal activity against MATIN (Matricaria inodora [2]; dosage 320 g a.i./ha) | Herbicidal activity against ECHCG (Echinochloa crus-galli; dosage 320 g a.i./ha) | Herbicidal activity against VERPE (Veronica persica; dosage 80 g a.i./ha) | Herbicidal activity against VERPE (Veronica persica; dosage 320 g a.i./ha) | Herbicidal activity against STEME (Stellaria media [5]; dosage 80 g a.i./ha) | Herbicidal activity against STEME (Stellaria media [5]; dosage 320 g a.i./ha) | Herbicidal activity against SETVI (Setaria viridis [6]; dosage 320 g a.i./ha) | Herbicidal activity against VIOTR (Viola tricolor [7]; dosage 80 g a.i./ha) | Herbicidal activity against VIOTR (Viola tricolor [7]; dosage 320 g a.i./ha) | Herbicidal activity against ABUTH (Abutilon theophrasti; dosage 320 g a.i./ha)

CCCC/C(=N/O)c1cnc(N[C@H]2c3cc(C)ccc3C[C@@H]2C)nc1 [Compound 1.85b, N-[(1R,2S)-2,6-dimethyl-2,3-dihydro-1H-inden-1-yl]-5-[(1Z)-N-hydroxypentanimidoyl]pyrimidine-2-amine]
80%: Herbicidal activity against MATIN (Matricaria inodora [2]; dosage 320 g a.i./ha) | Herbicidal activity against AMARE (Amaranthus retroflexus [4]; dosage 320 g a.i./ha)
90%: Herbicidal activity against POLCO (Polygpnum convolvulus [3]; dosage 320 g a.i./ha)
100%: Herbicidal activity against VERPE (Veronica persica; dosage 80 g a.i./ha) | Herbicidal activity against VERPE (Veronica persica; dosage 320 g a.i./ha) | Herbicidal activity against STEME (Stellaria media [5]; dosage 80 g a.i./ha) | Herbicidal activity against STEME (Stellaria media [5]; dosage 320 g a.i./ha) | Herbicidal activity against VIOTR (Viola tricolor [7]; dosage 80 g a.i./ha) | Herbicidal activity against VIOTR (Viola tricolor [7]; dosage 320 g a.i./ha)
4.1: chromatographic logP [1]

C/C(=N\Oc1ccc(F)cc1)c1cnc(N[C@H]2c3cc(C)ccc3C[C@@H]2C)nc1 [Compound 1.101a, N-[(1R,2S)-2,6-Dimethyl-2,3-dihydro-1H-inden-1-yl]-5-[(1E)-N-(4-fluorophenoxy)ethanimidoyl]pyrimidine-2-amine]
80%: Herbicidal activity against MATIN (Matricaria inodora [2]; dosage 80 g a.i./ha) | Herbicidal activity against SETVI (Setaria viridis [11]; [15])
100%: Herbicidal activity against MATIN (Matricaria inodora [2]; dosage 320 g a.i./ha) | Herbicidal activity against ECHCG (Echinochloa crus-galli; dosage 320 g a.i./ha) | Herbicidal activity against VERPE (Veronica persica; dosage 80 g a.i./ha) | Herbicidal activity against VERPE (Veronica persica; dosage 320 g a.i./ha) | Herbicidal activity against AMARE (Amaranthus retroflexus [4]; dosage 320 g a.i./ha) | Herbicidal activity against STEME (Stellaria media [5]; dosage 80 g a.i./ha) | Herbicidal activity against STEME (Stellaria media [5]; dosage 320 g a.i./ha) | Herbicidal activity against VIOTR (Viola tricolor [7]; dosage 320 g a.i./ha) | Herbicidal activity against POLCO (Polygpnum convolvulus [8]; [14]) | Herbicidal activity against POLCO (Polygpnum convolvulus [8]; [15]) | Herbicidal activity against ABUTH (Abutilon theophrasti; dosage 320 g a.i./ha)
90%: Herbicidal activity against POLCO (Polygpnum convolvulus [3]; dosage 80 g a.i./ha) | Herbicidal activity against AMARE (Amaranthus retroflexus [4]; dosage 80 g a.i./ha) | Herbicidal activity against CYPES (Cyperus esculentus) | Herbicidal activity against ABUTH (Abutilon theophrasti; dosage 80 g a.i./ha) | Herbicidal activity against STEME (Stellaria media [10]; dosage 80 g a.i./ha) | Herbicidal activity against STEME (Stellaria media [10]; dosage 320 g a.i./ha) | Herbicidal activity against VIOTR (Viola tricolor [12]; [14]) | Herbicidal activity against VIOTR (Viola tricolor [12]; [15])
5.34: chromatographic logP [1]

CCO/N=C(\C)c1cnc(N[C@H]2c3cc(C)ccc3C[C@@H]2C)nc1 [Compound 1.103a, N-[(1R,2S)-2,6-Dimethyl-2,3-dihydro-1H-inden-1-yl]-5-[(1E)-N-ethoxyethanimidoyl]pyrimidine-2-amine]
80%: Herbicidal activity against MATIN (Matricaria inodora [13]) | Herbicidal activity against PHBPU (Ipomoea purpurea; [14])
100%: Herbicidal activity against MATIN (Matricaria inodora [2]; dosage 320 g a.i./ha) | Herbicidal activity against ECHCG (Echinochloa crus-galli; dosage 320 g a.i./ha) | Herbicidal activity against POLCO (Polygpnum convolvulus [3]; dosage 320 g a.i./ha) | Herbicidal activity against AMARE (Amaranthus retroflexus [4]; dosage 80 g a.i./ha) | Herbicidal activity against AMARE (Amaranthus retroflexus [4]; dosage 320 g a.i./ha) | Herbicidal activity against STEME (Stellaria media [5]; dosage 80 g a.i./ha) | Herbicidal activity against STEME (Stellaria media [5]; dosage 320 g a.i./ha) | Herbicidal activity against SETVI (Setaria viridis [6]; dosage 320 g a.i./ha) | Herbicidal activity against VIOTR (Viola tricolor [7]; dosage 80 g a.i./ha) | Herbicidal activity against VIOTR (Viola tricolor [7]; dosage 320 g a.i./ha) | Herbicidal activity against POLCO (Polygpnum convolvulus [8]; [15])
90%: Herbicidal activity against MATIN (Matricaria inodora [2]; dosage 80 g a.i./ha) | Herbicidal activity against POLCO (Polygpnum convolvulus [8]; [14]) | Herbicidal activity against ABUTH (Abutilon theophrasti; dosage 320 g a.i./ha) | Herbicidal activity against PHBPU (Ipomoea purpurea; [15]) | Herbicidal activity against STEME (Stellaria media [10]; dosage 80 g a.i./ha) | Herbicidal activity against STEME (Stellaria media [10]; dosage 320 g a.i./ha) | Herbicidal activity against VIOTR (Viola tricolor [12]; [14]) | Herbicidal activity against VIOTR (Viola tricolor [12]; [15])

CC/C(=N/OCc1ccc(Cl)cc1)c1cnc(N[C@H]2c3cc(C)ccc3C[C@@H]2C)nc1CC [Compound 1.115b, 5-{(1Z)-N-[(4-Chlorobenzyl)oxy]propanimidoyl}-N-[(1R,2S)-2,6-dimethyl-2,3-dihydro-1H-inden-1-yl]-4-ethylpyrimidine-2-amine]
80%: Herbicidal activity against POLCO (Polygpnum convolvulus [8]; [16]) | Herbicidal activity against SETVI (Setaria viridis [11]; [17]) | Herbicidal activity against VIOTR (Viola tricolor [12]; [17])
90%: Herbicidal activity against MATIN (Matricaria inodora [2]; dosage 320 g a.i./ha) | Herbicidal activity against VIOTR (Viola tricolor [7]; dosage 80 g a.i./ha) | Herbicidal activity against PHBPU (Ipomoea purpurea; [16]) | Herbicidal activity against VIOTR (Viola tricolor [12]; [16])
100%: Herbicidal activity against VERPE (Veronica persica; dosage 80 g a.i./ha) | Herbicidal activity against VERPE (Veronica persica; dosage 320 g a.i./ha) | Herbicidal activity against STEME (Stellaria media [5]; dosage 320 g a.i./ha) | Herbicidal activity against VIOTR (Viola tricolor [7]; dosage 320 g a.i./ha) | Herbicidal activity against SETVI (Setaria viridis [11]; [16])
